For test [1], the target named is Human immunodeficiency virus type 1 protease (Human immunodeficiency virus 1) (UniProt Q72874). Briefly: Second order rate constant was determined for the irreversible inhibition of HIV-1 protease; value ranges from 10e8- 10e10.
Test [2] deals with Human immunodeficiency virus type 1 protease (Human immunodeficiency virus 1, UniProt Q72874). Briefly: Compound was tested for 50% irreversible inhibition of HIV-1 protease; value ranges from 10-50.

SMILES strings stand for the structures.

Broadly, the IC50 is the concentration needed to halve the response being measured. A lower IC50 goes with inhibition by little substance.

Turning to `CC(C)[C@@H](NC(=O)C[C@@H]1O[C@@H]1[C@H](Cc1ccccc1)NC(=O)[C@H](CC(N)=O)NC(=O)c1ccc2ccccc2n1)c1ccccc1`, in test [1], the K inact/Ki worked out at 1e+08 M⁻¹ min⁻¹. This molecule displayed a half-inhibitory concentration (IC50) in test [2] of 10 nM.
For `CC(C)[C@H](Cc1ccccc1)NC(=O)C[C@@H]1O[C@@H]1[C@H](Cc1ccccc1)NC(=O)[C@H](CC(N)=O)NC(=O)c1ccc2ccccc2n1`, the K inact/Ki in test [1] was determined as 1e+08 M⁻¹ min⁻¹. The molecule further registered an IC50 in test [2] of 10 nM.
With `CONC(=O)[C@H](NC(=O)C[C@@H]1O[C@@H]1[C@H](Cc1ccccc1)NC(=O)[C@H](CC(N)=O)NC(=O)c1ccc2ccccc2n1)C(C)C`, the K inact/Ki in test [1] amounted to 1e+08 M⁻¹ min⁻¹. Besides, the IC50 in test [2] is 10 nM.

The values are drawn from ChEMBL document CHEMBL1130952, “NMR and topochemical studies of peptidomimetic HIV-I protease inhibitors containing a cis-epoxide amide isostere” (Bioorg Med Chem Lett, 1998).
